According to patent publication US7294457B2, “Direct binding assay for identifying inhibitors of HCV polymerase” (priority 2001, dated 2007):
“And” between values parts separate entries of the source, which are not always exact repeats. Equal values may be shown once.

Columns and labels:
NS5BΔ21-His polymerase = molecular target: T1, NS5BΔ21-His polymerase (Hepatitis C virus genotype 1b, UniProt P26663); test: Fluorescence anisotropy titration of probe with NS5BΔ21-His; type: binding, HCV; conditions: Kd of probe for NS5BΔ21-His
T1 construct: a variant that lacks the C-terminal 21 amino acids normally found on the mature NS5B; hexa-histidine (C); made in house; host or cells: E. coli JM109 (DE3), pET vector
Protocol: Titration of the probe with the enzyme was performed as follows:
(§1) The fluorescein labeled probe was diluted to the desired concentration in 20 mM Tris-HCl pH 7.5, 1 mM EDTA, 5 mM MgCl2, 1 mM DTT and 10% DMSO. The NS5BΔ21-His protein was serially diluted in 25 mM Tris-HCl pH 7.5, 300 mM NaCl, 5 mM DTT, 1 mM EDTA, 30% glycerol and 0.1% IGEPAL. Total volume of the reaction was 500 μL and final assay buffer was 20 mM Tris-HCl pH 7.5, 1 mM EDTA, 5 mM MgCl2, 1 mM DTT, 30 mM NaCl, 3% glycerol, 0.01% IGEPAL and 5% DMSO. Anisotropy measurements were performed on a SLM Aminco 8100 Spectrofluorometer equipped with a 450-W xenon arc lamp and a T-optics configuration. Excitation wavelength was at 493 nm and emission was monitored at 530 nm. In each anisotropy measurement, the parallel and perpendicular intensities of the background buffer solution was subtracted from the measured values of the sample and the anisotropy was calculated. Data were processed on SAS program (SAS Institute Inc., NC, USA) for a non linear regression to obtain the direct binding equilibrium constant and other parameters, and the plot of the regressed fit over the experimental data. An example of a titration curve obtained with probe (i) is shown on FIG. 1.
The usefulness of this polarization assay is evident when binding of compounds has to be studied under different conditions. For example, binding constants of the probes have been determined at different concentrations of salts and pH. FIGS. 5 to 8 show the binding curves of probe (i) in final NaCl concentrations ranging from 30 mM to 200 mM. […] All other reagents in the assay were as described in the standard protocol (Example 3). […] Studies at pH 6.5 were also performed to determine the Kd of the probe (i) at lower pH. For these assays, 20 mM Phosphate buffer pH 6.5 was used in place of Tris; all other reagents of the assay were as described in the 96-well Polarization assay (Example 4). […] Having established these Kd values under different experimental conditions, it is then trivial to determine what concentrations of probe and enzyme should be used to obtain 70% of binding of the probe with the equilibrium equation. Once these values are obtained, compounds of interest can easily be studied under the new conditions to determine their Kd values.

His-NS5BΔ21 polymerase = molecular target: T2, His-NS5BΔ21 polymerase (Hepatitis C virus genotype 1b, UniProt P26663); test: Fluorescence anisotropy/polarization titration of probe with His-NS5BΔ21; type: binding, HCV; conditions: Kd of probe for N-terminally tagged His-NS5BΔ21, standard conditions
T2 construct: a variant that lacks the C-terminal 21 amino acids normally found on the mature NS5B; hexa-histidine (N); made in house; host or cells: E. coli JM109 (DE3), pET vector
Protocol: as §1, with “Data were processed on SAS program (SAS Institute Inc., NC, USA) for a non linear regression to obtain the direct binding equilibrium constant and other parameters, and the plot of the regressed fit over the experimental data. An example of a titration curve obtained with probe (i) is shown on FIG. 1.” left out
To obtain Kd values of different compounds competing with these probes (test compounds), this assay was transformed to a more amenable format and a binding assay was made suitable for a 96-well microplate reader. […] The NS5BΔ21-His concentration in the assay was calculated to obtain 70% of binding of the probe; these conditions allowed for the displacement of the probe by test compounds. […]
The Fluorescence polarization assay was also used with other constructs of our HCV polymerase enzyme. […]

GBV-BΔ23-His polymerase = molecular target: T3, GBV-BΔ23-His polymerase (Hepatitis GB virus B, UniProt Q69422); test: Fluorescence anisotropy titration of probe with GBV-B polymerase; type: binding
T3 construct: The GBV-B polymerase enzyme (termed GBV-BΔ23-His; 3); His tag (C); made in house; host or cells: E. coli JM109 (DE3), pET vector
Protocol: as §1, with “An example of a titration curve obtained with probe (i) is shown on FIG. 1.” left out
(§2) The GBV-B and the HCV 1a polymerases were used to titrate probe ii, using the protocol described in Example 3. […] Kd values for a series of compounds were determined with these two HCV (genotypes 1a and 1b) polymerases, using the assay format described in Example 4.

[1] = molecular target: T4, His-NS5BΔ21(H77c, HCV genotype 1a) polymerase (Hepatitis C virus genotype 1a, UniProt P27958); test: Fluorescence anisotropy titration of probe with HCV genotype 1a polymerase; type: binding; conditions: Kd of probe for HCV genotype 1a polymerase, standard conditions of Example 3
T4 construct: The HCV genotype 1a NS5B polymerase [termed His-NS5BΔ21 (H77c, 1a); 4]; His tag (N); made in house; host or cells: E. coli JM109 (DE3), pET vector
Protocol: as §1, with “data.” for “data. An example of a titration curve obtained with probe (i) is shown on FIG. 1.”
as §2

[2] = standard conditions of Example 3 (Tris-HCl pH 7.5, 30 mM NaCl)

SMILES	Kd (NS5BΔ21-His polymerase; 20 mM Phosphate buffer pH 6.5 in place of Tris)	Kd (NS5BΔ21-His polymerase; 30 mM NaCl)	Kd (NS5BΔ21-His polymerase; 100 mM NaCl)	Kd (NS5BΔ21-His polymerase; 150 mM NaCl)	Kd (NS5BΔ21-His polymerase; 200 mM NaCl)	Kd (NS5BΔ21-His polymerase; [2])	Kd (His-NS5BΔ21 polymerase)	Kd (GBV-BΔ23-His polymerase; Kd of probe for GBV-BΔ23-His polymerase, estimated value with an incomplete curve)	Kd with GBV-B polymerase relative to HCV polymerases (GBV-BΔ23-His polymerase; fold higher Kd, specificity)	Kd [1]
O=C(O)COc1ccc2[nH]cc(C[C@H](NC(=O)c3ccc4c(c3)nc(-c3ccc(C(=O)NCCNC(=S)Nc5ccc(-c6c7ccc(=O)cc-7oc7cc(O)ccc67)c(C(=O)O)c5)cc3)n4C3CCCCC3)C(=O)O)c2c1 [probe (i), 5-[3-(2-{[1-(4-{5-[(S)-1-Carboxy-2-(5-carboxymethoxy-1-H-indol-3-yl)-ethylcarbamoyl]-1-cyclohexyl-1H-benzimidazol-2-yl}-phenyl)-methanoyl]-amino}-ethyl)-thioureido]-2-(6-hydroxy-3-oxo-3H-xanthen-9-yl)-benzoic acid]	33 nM	15 nM and 15.3 nM	39 nM	78 nM	122 nM	15 nM and 12.6 nM	18 nM and 18.1 nM			
O=C(O)COc1ccc2[nH]cc(C[C@H](NC(=O)c3ccc4c(c3)nc(-c3ccc(OCC(=O)NCCNC(=S)Nc5ccc(-c6c7ccc(=O)cc-7oc7cc(O)ccc67)c(C(=O)O)c5)cc3)n4C3CCCCC3)C(=O)O)c2c1 [probe (ii), 5-(3-{2-[2-(4-{5-[(S)-1-Carboxy-2-(5-carboxymethoxy-1-H-indol-3-yl)-ethylcarbamoyl]-1-cyclohexyl-1H-benzimidazol-2-yl}-phenoxy)-ethanoylamino]-ethyl}-thioureido)-2-(6-hydroxy-3-oxo-3H-xanthen-9-yl)-benzoic acid]						6 nM		1800 nM and 1790 nM	at least 100 fold	18 nM and 18.2 nM
